We go through 2 molecules from patent US8481711B2, “Neurite outgrowth agent” (Hidenori Kamanishi, priority 2010, dated 2013).

Holding throughout (format): cell-based
For one test, the system named is Neuro-2a cells. The test is described as follows: Neurite outgrowth in mouse neuroblastoma Neuro-2a cells (phase-contrast microscopy). The following applies: 10 μg/mL, 48 hours culture, vs control without compound. As to the method:
Using mouse-derived neuroblastoma cells that are model cells used to examine neurite outgrowth effect, the inductive action of the NAD analogue of the present invention on the outgrowth of neurites was examined. Mouse-derived neuroblastoma cells (Neuro-2a cells) (obtained from the Health Science Research Resources Bank) were adjusted to a concentration of 10^6 cells/mL, and the cells were then cultured at 37° C. in a 10% fetal bovine serum-added Eagle's minimal essential (EME) medium culture solution in the presence of 5% CO2.
The above-described Neuro-2a cells were cultured for 3 hours, and the medium was then exchanged with a fresh one of the same type as described above. Then, 10 μg/mL of the NAD analogue of the present invention was added thereto, and the culture was further continued for 48 hours. Thereafter, the morphological alteration of the cell was observed under a phase-contrast microscope. […] However, when compared with the case of adding the NAD analogue of the present invention to the cells, the length of such a neurite was apparently short. Moreover, the same experiment as described above was carried out using commercially available β-NAD.

In test [1] the test system is fetal rat midbrain dopaminergic nerve cells. Description: Neurite outgrowth in fetal rat midbrain dopaminergic nerve cells (anti-tyrosine hydroxylase immunostaining, Neurolucida). The following applies: for length of neurites elongated from the cell bodies (concentration dependence): 0.01, 0.1, 1.0 and 10 μg/mL, vs control (FIG. 6). As to the method:
Fetuses were removed from a Sprague-Dawley (SD) rat that was 15 days pregnant, and a ventral portion of midbrain was then cut out under a stereoscopic microscope. The obtained portion was chopped with a surgical knife, and was then treated at 37° C. in a 0.25% trypsin-containing PBS for 20 minutes, so that the cells were dispersed. Thereafter, the resulting cells were treated with PBS that contained 50 μg/mL deoxyribonuclease (DNase I) and 50 μg/mL trypsin inhibitor at 37° C. for 5 minutes, so as to obtain fetal rat midbrain dopaminergic nerve cells. The thus obtained fetal rat midbrain dopaminergic nerve cells were cultured at 37° C. in a 10% bovine serum-added Dulbecco's modified Eagle's medium (DMEM) culture solution in the presence of 5% CO2.
The above-described fetal rat midbrain dopaminergic nerve cells were cultured for 2 days, and the culture solution was then exchanged with a fresh one. The NAD analogue of the present invention was added to the cells in various concentrations of 0 (control), 0.01, 0.1, 1.0 and 10 μg/mL, and the obtained mixture was further cultured for 3 days. On the 5th day of the culture, the dopaminergic nerve cells were stained with an anti-tyrosine hydroxylase antibody (manufactured by Pel-Freez) and a Fluorescein (FITC)-labeled secondary antibody (manufactured by Jackson ImmunoResearch Laboratories, Inc.) according to an immunostaining method. Then, the length and number of neurites elongated from the cell bodies of the stained cells were then measured using Neurolucida (manufactured by Micro Bright Field). […] Moreover, the same experiment as described above was carried out using commercially available β-NAD.
The lengths of neurites elongated from the cells were measured, and a comparison was made on the measurement results. When 10 μg/mL of the NAD analogue of the present invention was added to the cells, the length of the obtained neurite became approximately 150% if the length of a neurite in the control was defined as 100%. […] It is noted that 45 control cells and 38 test cells were subjected to the measurement, and the results were shown as average values.
FIG. 8 is a graph showing a quantitative change in the effect of the NAD analogue of the present invention to allow neurites to elongate from fetal rat brain dopaminergic cells. […] Moreover, the same experiment as described above was carried out using commercially available β-NAD.

In another test the test system is NB-1 cells. The test is described as follows: Neurite outgrowth in human neuroblastoma-derived NB-1 cells (phase-contrast microscopy). The note with it: 10 μg/mL; for morphological alteration of the cells (neurite outgrowth): NB-1 cells 10^3 cells/mL, observed on the 10th day (FIG. 15). As to the method: Using human neuroblastoma cell-derived cells as model cells for neurite outgrowth, the action of the NAD analogue of the present invention to induce the outgrowth of neurites was examined. Human-derived neuroblastoma cells (NB-1 cells) (obtained from the Health Science Research Resources Bank) were adjusted to a concentration of 10^3 cells/mL, and the cells were then cultured at 37° C. in a 10% fetal bovine serum-added Eagle's minimal essential medium (EME) culture solution in the presence of 5% CO2.
The above-described NB-1 cells were cultured for 3 hours, and the medium was then exchanged with a fresh one of the same type as described above. Then, 10 μg/mL of the NAD analogue of the present invention was added thereto, and the culture was further continued. Thereafter, the morphological alteration of the cells was observed under a phase-contrast microscope. During the culture, the culture solution was exchanged with a fresh one every 4 or 5 days. […] However, when compared with the case of adding the NAD analogue of the present invention to the cells, the length of such a neurite was apparently short. Moreover, the same experiment as described above was carried out using commercially available β-NAD.
The number of human neuroblastoma-derived cells (NB-cells), which were to be used as model cells for studying neurite outgrowth effect, was adjusted to 10^6 cells/mL. Thus prepared NB-1 cells were cultured in an Eagle's MEM medium, to which calf serum had been added to a final concentration of 10% and to which 10 μg/mL of the NAD analogue of the present invention had also been added. After 7 days passed, the morphological alteration of the cells was observed under a phase-contrast microscope at a magnification of 200 times.

The test system of test [2] is HL-60 cells. The test is described as follows: Apoptosis induction in human myeloid leukemia cells (nuclear staining, DNA electrophoresis). As for the experimental part:
The number of human myeloid leukemia cells (HL-60 cells) was adjusted to 1.0×10^4 cells/mL. The thus prepared HL-60 cells were cultured in an RPMI medium, to which calf serum had been added to a final concentration of 10% and to which the NAD analogue of the present invention had also been added in a concentration of 10 μg/mL or 20 μg/mL. Four days later, the cells were subjected to nuclear staining, and they were then observed under a fluorescence microscope. Furthermore, DNA was extracted from the cells according to an ordinary method and was then electrophoresed.

Test [3] deals with HL-60 cells. Description: Growth suppression of human myeloid leukemia cells (cell count). The following applies: tested 0, 2.0, 4.0, 8.0 μg/mL, 5 days, t-test p<0.05 (FIG. 17). As for the experimental part:
The number of human myeloid leukemia cells (HL-60 cells) was adjusted to 1.0×10^4 cells/mL. The thus prepared HL-60 cells were cultured in an Eagle's MEM medium, to which calf serum had been added to a final concentration of 10% and to which the NAD analogue of the present invention had also been added in various concentrations of 0, 2.0, 4.0, and 8.0 μg/mL. After 5 days passed, the number of cells was counted.
(§1) Analysis was carried out by a t-test. It was determined that p<0.05 indicated a significant difference.

The next test has as its system HT1080 cells. Description: Growth suppression of human fibrosarcoma cells (cell count). The note with it: tested 0, 2.0, 4.0, 8.0 μg/mL, 7 days, t-test p<0.05 (FIG. 20). As for the experimental part:
The number of human fibrosarcoma cells (HT1080 cells) was adjusted to 1.0×10^4 cells/mL. Thus prepared HT1080 cells were cultured in an Eagle's MEM medium, to which calf serum had been added to a final concentration of 10% and to which the NAD analogue of the present invention had also been added in various concentrations of 0, 2.0, 4.0, and 8.0 μg/mL. After 7 days passed, the number of cells was counted.
as §1

Another test relates to UF-1 cells. Description: Growth suppression of retinoic acid-resistant leukemia cells (cell count). The note with it: tested 0, 2.0, 4.0, 8.0 μg/mL, 28 days, t-test p<0.05 (FIG. 19). As to the method:
The number of retinoic acid-resistant leukemia cells (UF-1 cells) was adjusted to 1.0×10^4 cells/mL. The thus prepared UF-1 cells were cultured in an RPMI medium, to which calf serum had been added to a final concentration of 10% and to which the NAD analogue of the present invention had also been added in various concentrations of 0, 2.0, 4.0, and 8.0 μg/mL. After 28 days passed, the number of cells was counted.
Analysis was carried out by a t-test. It was determined that p<0.05 indicated a significant difference. […] A differentiation induction therapy using retinoic acid has conventionally been carried out for the treatment of myeloid leukemia cells. It has been known that the leukemia cells eventually become resistant to retinoic acid, and thus the effect of retinoic acid becomes deactivated. However, from the results of the test using the NAD analogue of the present invention, it was confirmed that the NAD analogue of the present invention has an action to suppress the growth of even leukemia cells, which have acquired resistance to retinoic acid. In general, cells are not cultured for such a long period of time. The above-mentioned results were epoch-making in the sense that they were found after the culture for 28 days.

In another test the test system is HT29 cells. The test is described as follows: Growth suppression of human colon-adenocarcinoma cells (cell count). The following applies: tested 0, 2.0, 4.0, 8.0 μg/mL, 7 days, t-test p<0.05 (FIG. 21). As to the method: The number of human colon-adenocarcinoma cells (HT29 cells) was adjusted to 1.0×10^4 cells/mL. Thus prepared HT29 cells were cultured in an Eagle's MEM medium, to which calf serum had been added to a final concentration of 10% and to which the NAD analogue of the present invention had also been added in various concentrations of 0, 2.0, 4.0, and 8.0 μg/mL. After 7 days passed, the number of cells was counted.
as §1

Consider `NC(=O)c1ccc[n+]([C@@H]2O[C@H](COP(=O)([O-])OP(=O)(O)OC[C@H]3O[C@@H](n4cnc5c(N)ncnc54)[C@H](O)[C@@H]3O)[C@@H](O)[C@H]2O)c1` [β-NAD, reference compound], for which, in the test on Neuro-2a cells, the “morphological alteration of the cell (neurite outgrowth)” value is “no change in neurites was found”. Further, the “length of neurites elongated from the cell bodies (concentration dependence)” value in test [1] (3 days) is listed as “the outgrowth of neurites was not observed”. In addition, in test [1] (fetal rat brain dopaminergic cells), the “outgrowth of neurites (same experiment as FIG. 8)” value is “the outgrowth of neurites was not observed”. Besides, the “morphological alteration of the cells (neurite outgrowth)” value with NB-1 cells is recorded as “no change in neurites was found”.
For the molecule “3-(aminocarbonyl)-1-[5-O-[[1-(6-amino-9H-purin-9-yl)-1-deoxy-β-D-ribofuranose-5-O-yl]phosphonyloxy(oxylato)phosphinyl]-β-L-ribofuranosyl]pyridinium [NAD analogue of the present invention]”, in the test on Neuro-2a cells, the “morphological alteration of the cell (neurite outgrowth)” value is “neurites (nerve axon-like projections) appeared from Neuro-2a cells and that these neurites elongated from the cells”. Further, in test [1] (10 μg/mL, average of 38 test cells vs 45 control cells (FIG. 7)), the “length of the neurite (control defined as 100%)” value was “approximately 150%”. Besides, the “length of neurites elongated from the cell bodies (concentration dependence)” value in test [1] (3 days) is given as “the higher the concentration of the NAD analogue of the present invention in the fetal rat midbrain nerve cells, the longer a neurite”. For the same molecule, in test [1] (fetal rat brain dopaminergic cells (FIG. 8)), the “concentration whose addition allows neurites to elongate” value stood at 0.1 µg/mL. In test [1] (fetal rat midbrain nerve cells, 0 to 10 μg/mL, 3 days), the “formation of varicosities on the projection” value is recorded as “forms a large number of knobby, what is called “varicosities” on the projection”. Also, the “shape of the nucleus (nuclear staining, fluorescence microscope)” value in the test with HL-60 cells [2] (HL-60 cells cultured for 4 days with compound (FIG. 18B)) is on record as “the breakage of the nucleus in the HL-60 cell was clearly observed”. Also, the “DNA fragmentation (electrophoresis of extracted DNA)” value in the test with HL-60 cells [2] (HL-60 cells, 10 μg/mL or 20 μg/mL, 4 days (FIG. 18C lanes 3 and 4)) is recorded as “fragmentation of the DNA due to apoptosis was observed in the form of a “ladder.””. Further, the “concentration at which growth of the HL-60 cells was obviously suppressed” value in the test on HL-60 cells [3] was not below 2.0 µg/mL. For the same molecule, the “concentration at which growth of the cells was significantly suppressed” value is not below 4.0 µg/mL in the test with HT1080 cells and not below 2 µg/mL in the test with HT29 cells. The “morphological alteration of the cells (neurite outgrowth)” value with NB-1 cells was “neurites (nerve axon-like projections) appeared from NB-1 cells and that these neurites elongated from the cells”. Besides, the “morphological alteration of the cells (neurite-like structures)” value in the test on NB-1 cells (NB-1 cells 10^6 cells/mL, after 7 days (FIG. 16)) is “neurite-like structures elongated more significantly”. Also, the “concentration at which growth of the UF-1 cells was significantly suppressed” value in the test on UF-1 cells was not below 8.0 µg/mL.
